Literature values in article PMC2552397 (Journal of medicinal chemistry, 2008).

Key:
[1] = target: T1, GGPPS (Homo sapiens, UniProt O95749); details: in words
T1 sequence (O95749 1-300): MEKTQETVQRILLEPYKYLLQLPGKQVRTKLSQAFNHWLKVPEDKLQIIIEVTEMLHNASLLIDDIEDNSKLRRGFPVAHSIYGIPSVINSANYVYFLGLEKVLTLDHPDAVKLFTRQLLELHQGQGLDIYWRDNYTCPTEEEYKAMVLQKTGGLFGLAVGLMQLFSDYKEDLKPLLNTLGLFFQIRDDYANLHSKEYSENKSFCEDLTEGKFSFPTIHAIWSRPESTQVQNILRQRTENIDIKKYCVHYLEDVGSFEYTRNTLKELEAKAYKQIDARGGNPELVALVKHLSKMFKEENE

[2] = system: K562 tumor cell line; details: in words

## CCCCCCCCCC(O)(P(=O)(O)O)P(=O)(O)O [compound 4]
[1]
  activity against GGPPS: quite potent activity

## CC(C)=CCC/C(C)=C/CC(C/C=C(\C)CCC=C(C)C)(P(=O)(O)O)P(=O)(O)O [compound 5, digeranyl methylene bisphosphonate]
[2]
  activity against a K562 tumor cell line: potent activity
[1]
  activity against GGPPS: potent activity
